Assay results from patent publication US9822157B2 (priority 2013, dated 2017).
Read-outs that look alike come from different tables or passages of the source.

Key:
[1] = system: serum iron; assay: In vivo serum iron reduction in mice; design: species or system mice (C57-BL6); conditions: tested in rats or in mice
Description: Instead of rats, mice (C57-BL6) were tested.
A similar experiment was performed with lower doses to assess the dose response of these compounds for inducing serum iron reduction. Methods were as described above in this Example, except for the following parameters: n=4 mice/group, however n=8 for the vehicle, as two groups were pooled. Mice were administered test compounds at two separate dosages (300 nmol/kg or 1000 nmol/kg), via subcutaneous injection. Serum iron levels were assessed as in Example 8 two hours after peptide or vehicle injection. […] Moreover, it was clear that several of the compounds were able to induce maximum effects at dosages as low as 300 nmol/kg.
The route of peptide administration was via subcutaneous injection, unless otherwise indicated as having been via intraperitoneal injection (this is noted on the table by “i.p.” in parentheses following the “yes” or “no” determination).
The peptides were also tested for other pharmacokinetic/pharmacodynamic (PK/PD) parameters using methods commonly know by the skilled artisan. These parameters included determinations regarding stability (hours stable in plasma from the indicated human or rat subject), half-life in mice, and in vitro activity (EC50), tested as described in Example 2.

[2] = system: serum iron; assay: In vivo serum iron reduction in mice; design: species or system mice (C57-BL6); conditions: C57BL6 mice, time course, FIG. 6
[3] = system: serum iron; assay: Reduction of free plasma iron in rats (serum iron after i.p. dosing); assay type: in vivo, Sprague-Dawley rats; conditions: IP dosing, FIGS. 2 and 3
Description: At Day 1, the animals were monitored for free Fe^2+ in serum. In order to reach a homogenous serum level, Fe^2+ was analyzed and a homogenous cohort of 7 or 8 animals randomized to each treatment group. At Day 2, an acute experiment where the animals were subjected to i.p. dosing of test compound and subsequent tail vein blood samples. Prior to dosing, the animals were put under a heating lamp for 3-5 minutes. Blood samples were drawn from the tail vein from all animals in order to determine serum iron levels prior to vehicle or compound dosing. Animals were dosed i.p. with 1 ml of test substance in vehicle or just vehicle and blood samples of 250 μl was drawn from each animal at t=0, 60, 120, 240, 360 min and 24 hours in the study of the reference compound. The dose response study performed with Retro Inverse (RI) mini-Hepcidin (Reference compound), and the efficacy study performed with Compound No. 2 were performed as two separate experiments. […]
Male Sprague-Dawley rats weighing 200-250 g were used in the study. […] Humane endpoints were applied, according to OECD's “Guidelines for Endpoints in Animal Study Proposals.” The animals were monitored daily.
Iron content in plasma/serum is measured for iron content using a colorimetric assay on the Cobas c 111 according to instructions from the manufacturer of the assay (assay: IRON2: ACN 661). […]

[4] = target: T1, human ferroportin (Homo sapiens, UniProt Q9NP59); assay type: cell-based; conditions: for % Activity At 1 uM: at 1 uM peptide, monomers and disulphide-linked dimers
T1 sequence (Q9NP59 1-571): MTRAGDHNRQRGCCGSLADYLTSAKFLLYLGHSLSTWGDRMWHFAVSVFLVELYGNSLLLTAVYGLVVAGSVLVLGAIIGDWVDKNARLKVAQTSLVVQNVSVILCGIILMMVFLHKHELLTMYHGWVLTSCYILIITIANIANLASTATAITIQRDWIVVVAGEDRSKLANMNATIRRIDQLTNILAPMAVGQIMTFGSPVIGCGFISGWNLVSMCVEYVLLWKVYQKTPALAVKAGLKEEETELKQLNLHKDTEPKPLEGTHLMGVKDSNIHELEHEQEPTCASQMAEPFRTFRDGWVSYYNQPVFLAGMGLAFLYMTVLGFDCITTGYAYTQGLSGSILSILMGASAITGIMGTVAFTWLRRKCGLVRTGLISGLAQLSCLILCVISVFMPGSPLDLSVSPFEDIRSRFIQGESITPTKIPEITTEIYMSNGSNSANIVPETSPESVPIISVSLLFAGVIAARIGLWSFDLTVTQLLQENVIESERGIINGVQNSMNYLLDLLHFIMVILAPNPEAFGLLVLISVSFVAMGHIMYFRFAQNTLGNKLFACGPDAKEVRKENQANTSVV
Excerpt: The cDNA encoding the human ferroportin (SLC40A1) was cloned from a cDNA clone from Origene (NM_014585). The DNA encoding the ferroportin was amplified by PCR using primers also encoding terminal restriction sites for subcloning, but without the termination codon. The ferroportin receptor was subcloned into a mammalian GFP expression vector containing a neomycin (G418) resistance marker in such that the reading frame of the ferroportin was fused in frame with the GFP protein. The fidelity of the DNA encoding the protein was confirmed by DNA sequencing. HEK293 cells were used for transfection of the ferroportin-GFP receptor expression plasmid. The cells were grown according to standard protocol in growth medium and transfected with the plasmids using Lipofectamine (manufacturer's protocol, Invitrogen). […] The cells were propagated and frozen in aliquots.
A retro inverse peptide is a peptide with a reversed sequence in all D amino acids. […] The EC50 of these reference compounds for ferroportin degradation was determined according to the activity assay described above.

[5] = Hepcidin analog peptides, read-out: Potency EC50
[6] = read-out: EC50 (nM) (n = 3), in vitro activity as in Example 2, peptide monomers and dimers dimerized through a single disulphide linkage, n = 3
[7] = read-out: EC50 (n > 3), alanine scan of Compound 1
[8] = read-out: EC50 (n = 3), cells printed in μM, in vitro activity as in Example 2, peptide monomers and dimers dimerized through a single disulphide linkage, n = 3

## Isovaleric acid-DTHFPCIKFGPRSKGWVC-K(PEG8)-NH2 [Compound 153]
[1]; 300 nmol/kg
  In Vivo Activity (s.c.) 300 nmol/kg: Yes
[1]; 1000 nmol/kg
  In Vivo Activity (s.c.) 1000 nmol/kg: Yes
[2]
  serum iron, PK/PD effects: sustained

## Isovaleric acid-DTHFPCIKFEPRSKGWVCK-NH2 [Compound 181]
[1]; 300 nmol/kg
  In Vivo Activity (s.c.) 300 nmol/kg: Yes
[2]
  serum iron, PK/PD effects: a rapid decrease in serum iron, which was transient

## Hy-DTHFPIC(1)IFC(2)C(3)GC(2)C(4)HRSKC(3)GMC(4)C(1)KT-OH [Hepcidin, reference compound]
[1]; 300 nmol/kg
  In Vivo Activity (s.c.) 300 nmol/kg: Yes
[1]; 1000 nmol/kg
  In Vivo Activity (s.c.) 1000 nmol/kg: Yes

## Hy-DPhe-DIle-DCys-DIle-DPro-DPhe-DHis-DThr-DAsp-NH2 [RI-Mini Hepcidin, reference compound]
[3]
  serum iron level: in neither case significant

## Isovaleric acid-DTHFPCIKFGPRSKGWVCK-NH2 [Compound 9]
[1]; 300 nmol/kg
  In Vivo Activity (s.c.) 300 nmol/kg: Yes
[1]; 1000 nmol/kg
  In Vivo Activity (s.c.) 1000 nmol/kg: Yes

## Isovaleric acid-DTHFPCIKF-K(PEG8)-PRSKGWVCK-NH2 [Compound 150]
[1]; 300 nmol/kg
  In Vivo Activity (s.c.) 300 nmol/kg: Yes

## Isovaleric acid-DTHFPCIIFGPRSKGCK-NH2 [Compound 115]
[1]; 1000 nmol/kg
  In Vivo Activity (s.c.) 1000 nmol/kg: No

## Isovaleric acid-DTHFPCIKFEPRSKGCK-NH2 [Compound 184]
[1]; 300 nmol/kg
  In Vivo Activity (s.c.) 300 nmol/kg: Yes
[1]; 1000 nmol/kg
  In Vivo Activity (s.c.) 1000 nmol/kg: Yes

## Isovaleric acid-DTHAPCIKFEPRSKGWECK-NH2 [Compound 243]
[4]; Hepcidin analog peptides
  Potency EC50 (nM): Inactive

## Isovaleric acid-DTHFPICIFGPRS-K(PEG8)-GWVC-NH2 [Compound 176]
[1]; 300 nmol/kg
  In Vivo Activity (s.c.) 300 nmol/kg: Yes

## H-DTHFPICIFGPRAKGWVCM-NH2 (cysteine pairing not given here) [Compound 28]
[4]; [5]
  EC50: 88 nM

## H-DTHFPCILF-NH2 [Compound 308]
[4]
  % Activity At 1 uM: 89%
[4]; [6]
  EC50: > 300 nM

## Isovaleric acid-DTHFPCIIFGPRSRGWVCK-NH2 [Compound 3]
[1]; 300 nmol/kg, i.p.
  In Vivo Activity 300 nmol/kg (i.p.): No (i.p.)
[1]; 1000 nmol/kg, i.p.
  In Vivo Activity 1000 nmol/kg (i.p.): No (i.p.)

## Isovaleric acid-DTHFPCIIFEPRSKGWVCK-NH2 [Compound 105]
[1]; 300 nmol/kg
  In Vivo Activity (s.c.) 300 nmol/kg: Yes
[1]; 1000 nmol/kg
  In Vivo Activity (s.c.) 1000 nmol/kg: Yes

## H-DTHICIAIF-NH2 [Compound 276]
[4]; Hepcidin analog peptides
  Potency EC50 (nM): Inactive
[4]; cysteine replacement scan of Mini-Hepcidin derivatives
  EC50 (nM) (n > 3): Not active

## Hy-LTHFPCIIF-NH2 [Compound 299]
[4]
  % Activity At 1 uM: 64%
[4]; [6]
  EC50: > 300 nM

## H-DTHFPCIIA-NH2 [Compound 278]
[4]; [5]
  EC50: > 1000 nM
[4]; [7]
  EC50: > 1000 nM

## H-DTHFPCIIK-NH2 [Compound 304]
[4]
  % Activity At 1 uM: 55%
[4]; [8]
  EC50: > 1000 nM

## Isovaleric acid-THFPCIIFGPRSKGWVCK-NH2 [Compound 98]
[4]; Hepcidin analog peptides
  Potency EC50 (nM): Inactive

## H-DTHFPCIRFGPRSRGWVCK-NH2 (cysteine pairing not given here) [Compound 81]
[4]; [5]
  EC50: > 1000 nM

## H-DTHFPCAIF-NH2 [Compound 279]
[4]; [5]
  EC50: > 1000 nM
[4]; [7]
  EC50: > 1000 nM

## H-DTHAPCIIF-NH2 [Compound 282]
[4]; Hepcidin analog peptides
  Potency EC50 (nM): Inactive
[4]; alanine scan of Compound 1
  EC50 (nM) (n > 3): Not active

## H-DTHFPIAIFGPRSKGWVAM-NH2 [Compound 69]
[4]; Hepcidin analog peptides
  Potency EC50 (nM): Inactive
[4]; alanine scan of Compound 18
  EC50 (nM) (n > 3): Inactive

## H-DTHFPCIRFGPRSRGWRCK-NH2 (cysteine pairing not given here) [Compound 82]
[4]; [5]
  EC50: > 1000 nM

## Isovaleric acid-DTHFPCIEFGPRSKGWVCK-NH2 [Compound 15]
[1]; 1000 nmol/kg
  In Vivo Activity (s.c.) 1000 nmol/kg: Minor

## H-DTHFPICIFGPRSKGAVCM-NH2 (cysteine pairing not given here) [Compound 66]
[4]; [5]
  EC50: 520 nM
[4]; read-out: EC50 (nM) (n > 3), alanine scan of Compound 18
  EC50: 520 nM

## H-DTHFPCRRFGPRSKGWVC-NH2 (cysteine pairing not given here) [Compound 70]
[4]; Hepcidin analog peptides
  Potency EC50 (nM): Inactive

## Isovaleric acid-DTHFPICIFGPRSKGWVC-NH2 [Compound 2]
[3]
  serum iron level: a decrease in serum iron level that was comparable to that observed after injection of the positive control
[1]; 300 nmol/kg
  In Vivo Activity (s.c.) 300 nmol/kg: Yes
[1]; 1000 nmol/kg
  In Vivo Activity (s.c.) 1000 nmol/kg: Yes

## H-DTHFPCIKFF-NH2 [Compound 297]
[4]
  % Activity At 1 uM: 64%
[4]; [6]
  EC50: > 300 nM

## H-DTKFPCIIF-NH2 [Compound 302]
[4]
  % Activity At 1 uM: 60%
[4]; [8]
  EC50: > 1000 nM

## H-DTHFPCIIFGPRSKGWVCM-NH2 (cysteine pairing not given here) [Compound 21]
[4]; [5]
  EC50: 46 nM

## H-DTHFPCILK-NH2 [Compound 309]
[4]
  % Activity At 1 uM: 55%
[4]; [6]
  EC50: > 300 nM

## Hy-DTHFPCIIF-NH2 [Compound 1]
[4]
  % Activity At 1 uM: 92%

## H-HFPCIIFGPRSKGWVCK-NH2 (cysteine pairing not given here) [Compound 99]
[4]; Hepcidin analog peptides
  Potency EC50 (nM): Inactive

## Isovaleric acid-DTHFPCIQFGPRSKGWVCK-NH2 [Compound 10]
[1]; 1000 nmol/kg
  In Vivo Activity (s.c.) 1000 nmol/kg: Minor

## Isovaleric acid-DTHFPCIIF-NH2 [Compound 288]
[4]
  % Activity At 1 uM: 100%

## H-DTHFPCIIR-NH2 [Compound 305]
[4]
  % Activity At 1 uM: 62%
[4]; [8]
  EC50: > 1000 nM
